Assay results as given in US8163754B2, “Purine derivatives for use as adenosine A-2A receptor agonists” (Novartis AG, priority 2004, dated 2012).
Structures can show the parent of a compound that is named as a salt.

biological target: adenosine A2A receptor (Homo sapiens, UniProt P29274); assay: A2A receptor agonist assay, method of Murphree et al, Molecular Pharmacology 61, 455-462 (2002); format: binding; details: method of L. J. Murphree et al
Source text: Compounds of formula I and their pharmaceutically acceptable salts are useful as pharmaceuticals. In particular, they activate the adenosine A2A receptor, i.e. they act as A2A receptor agonists.

Sequence of adenosine A2A receptor (P29274 whole entry): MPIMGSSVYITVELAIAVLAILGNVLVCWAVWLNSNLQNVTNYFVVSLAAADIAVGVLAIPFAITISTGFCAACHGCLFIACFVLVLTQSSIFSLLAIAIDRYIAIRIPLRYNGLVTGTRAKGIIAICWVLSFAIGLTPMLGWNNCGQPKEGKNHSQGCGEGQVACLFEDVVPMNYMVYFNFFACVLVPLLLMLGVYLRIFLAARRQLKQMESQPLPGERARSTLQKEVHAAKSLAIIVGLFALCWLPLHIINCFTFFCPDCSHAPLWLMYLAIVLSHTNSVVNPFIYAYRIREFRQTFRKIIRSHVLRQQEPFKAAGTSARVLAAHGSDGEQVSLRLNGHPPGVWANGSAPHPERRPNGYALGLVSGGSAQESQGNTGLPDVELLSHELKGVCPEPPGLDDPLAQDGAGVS

Ki [nM] | Structure (SMILES)
8 | CCCCC#Cc1nc(NCC(c2ccccc2)c2ccccc2)c2ncn([C@@H]3C[C@H](NC(=O)CC)[C@@H](O)[C@H]3O)c2n1 [Example 6, N-{(1S,2R,3S,4R)-4-[6-(2,2-Diphenyl-ethylamino)-2-hex-1-ynyl-purin-9-yl]-2,3-dihydroxy-cyclopentyl}-propionamide]
52 | NC1CCN(c2nc(NCC(c3ccccc3)c3ccccc3)c3ncn(C4CC(NC(=O)C5CCC5)C(O)C4O)c3n2)C1 [Example 33, Cyclobutanecarboxylic acid {(1S,2R,3S,4R)-4-[2-((R)-3-amino-pyrrolidin-1-yl)-6-(2,2-diphenyl-ethylamino-3)-purin-9-yl]-2,3-dihydroxy-cyclopentyl}-amide]
2 | CCC(=O)N[C@H]1C[C@@H](n2cnc3c(NCC(c4ccccc4)c4ccccc4)nc(C(=O)NCCNC(=O)NC4CCN(c5ccccn5)CC4)nc32)[C@H](O)[C@@H]1O [Example 38, 9-((1R,2S,3R,4S)-2,3-Dihydroxy-4-propionylamino-cyclopentyl)-6-(2,2-diphenyl-ethylamino)-9H-purine-2-carboxylic acid {2-[3-(3,4,5,6-tetrahydro-2H-[1,2]bipyridinyl-4-yl)ureido]-ethyl}-amide]
3 | CCC(=O)N[C@H]1C[C@@H](n2cnc3c(NCC(c4ccccc4)c4ccccc4)nc(N4CC[C@@H](NC(=O)N[C@@H]5CCNC5)C4)nc32)[C@H](O)[C@@H]1O [Example 39, N-((1S,2R,3S,4R)-4-{6-(2,2-Diphenyl-ethylamino)-2-[(R)-3-((R)-3-pyrrolidin-3-ylureido)-pyrrolidin-1-yl]-purin-9-yl}-2,3-dihydroxy-cyclopentyl)-propionamide trifluoroacetate]
2 | CCC(=O)N[C@H]1C[C@@H](n2cnc3c(NCC(c4ccccc4)c4ccccc4)nc(C(=O)NCCNC(=O)N[C@H]4CCN(c5ccccn5)C4)nc32)[C@H](O)[C@@H]1O [Example 47, 9-((1R,2S,3R,4S)-2,3-Dihydroxy-4-propionylamino-cyclopentyl)-6-(2,2-diphenyl-ethylamino)-9H-purine-2-carboxylic acid {2-[3-((S)-1-pyridin-2-yl-pyrrolidin-3-yl)-ureido]-ethyl}-amide trifluoroacetate]

Structure (SMILES) | Ki [nM]
CCC(=O)N[C@H]1C[C@@H](n2cnc3c(N)nc(NCCc4ccccc4)nc32)[C@H](O)[C@@H]1O [Example 2, N-[(1S,2R,3S,4R)-4-(6-Amino-2-phenethylamino-purin-9-yl)-2,3-dihydroxy-cvclcpentyl]-propionamide trifluoroacetate] | 18
CCC(=O)N[C@H]1C[C@@H](n2cnc3c(NCCC(c4ccccc4)c4ccccc4)nc(NCCc4cn(CC)cn4)nc32)[C@H](O)[C@@H]1O [Example 61, N-((1S,2R,3S,4R)-4-{6-(3,3-diphenyl-propyl-amino)-2-[2-(1-ethyl-1H-imidazol-4-yl)-ethylamino]-purin-9-yl-2,3-dihydroxy-cyclopentyl}-propionamide trifluoroacetate] | 9
